Values quoted from earlier work as cited in US20110201631A1, “PHARMACEUTICAL FORMULATIONS COMPRISING PEMETREXED” (DR. REDDY'S LABORATORIES LTD., priority 2008, published 2011).

Conditions: U.S. Pat. No. 7,138,521

Nc1nc2[nH]cc(CCc3ccc(C(=O)N[C@@H](CCC(=O)[O-])C(=O)[O-])cc3)c2c(=O)[nH]1.[Na+].[Na+] [heptahydrate, L-Glutamic acid, N-[4-[2-(2-amino-4,7-dihydro-4-oxo-1H-pyrrolo[2,3-c]pyrimidin-5-yl)ethyl]benzoyl]-, disodium salt, heptahydrate]
Stability of crystal form relative to 2.5 hydrate: much more stable than the previously known 2.5 hydrate
